Structures can show the parent of a compound that is named as a salt.
Assay: Inhibition of formalin induced pain response in mice
Type: in vivo, mouse (NMRI female mice)
Conditions: 0.1 mg/kg, 1% formalin into left hind paw
Method: Compounds of formula I may be used to treat all painful, hyperalgesic and/or inflammatory conditions in which C-fibers play a pathophysiological role by eliciting neurogenic pain or inflammation, i.e.: Formalin induced pain or paw oedema […] About 20 g NMRI female mice were injected […] 1% formalin into the left hind paw. The animals were then placed on a heated (31° C.) table, and the pain response was scored. After 1 h they were killed and bled. Left and right hind paws were removed and the weight difference between the paws was used as indication of the oedema response of the formalin injected paw. Values for inhibition of formalin induced pain response for some representative compounds are recorded in table 1.

Row | Compound | % Pain inhibition (inhibition of formalin induced pain response) [%]
1 | Cl.O=C1Cc2ccccc2N(CCCN2CCC[C@@H](C(=O)O)C2)c2ccccc21 [Example 1, (R)-1-(3-(10-Oxo-10,11-dihydro-5H-dibenz[b,f]azepin-5-yl)-1-propyl)-3-piperidinecarboxylic acid hydrochloride] | 21
2 | O=C(O)[C@@H]1CCCN(CCC=C2c3ccccc3CSc3ccccc32)C1 [Example 3, (R)-1-(3-(6,11-Dihydro-dibenz[b,e]thiepin-11-yl)-1-propylidene)-3-piperidinecarboxylic acid hydrochloride] | 31

Source: patent publication US5716949A, “Heterocyclic compounds” (Novo Nordisk A/S, priority 1995, dated 1998)
